Reference: patent US9597393B2, “Synthetic toll-like receptor-4 (TLR-4) agonist peptides” (AV Therapeutics, Inc., priority 2012, dated 2017)
“Also recorded” adds a separate entry of the source. Each block holds one substance with its values, some of them ahead of it. Ends that are not written are not given here.

Key:
[1] = Water solubility of peptide stock; format: physicochemical; details: endotoxin free water; dissolved in 1% DMSO instead
Description: The LPS peptide mimics were dissolved in endotoxin free water (HyClone) at a concentration of 1 μg/ml with the exception of peptide 4 which was dissolved in a solution of 1% DMSO made in endotoxin free water at 1 μg/ml concentration. All of the peptide stock solutions and stored at −80° C. Each of the 12 peptides (RS01-RS12) was added to 96-well plates in triplicate in a total volume of 20 μl. The total volume required in each•well was made up with endotoxin free water (HyClone). 5×10^4 HEK-BLUE™-4 cells (Invivogen, San Diego, Calif.) were added per well and incubated for approximately 20 h after which the supernatant from each well was collected and placed into a new 96-well plate. 180 μl of HEK-BLUE™ detection media (Invivogen), alkaline phosphatase detection substrate, was added to each well and incubated for 1-3 h at 37° C. After a noticeable color change, the absorbance was taken at 630 nm using the microplate reader (Bio-Rad).
For all peptides, three concentrations, 1 μg/ml (black bars), 5 μg/ml (gray bars), and 10 μg/ml (white bars) were used to activate HEK-BLUE™-4 cells. LPS (0.1 μg/ml) was used as a positive control.

NF-κB [2] = experiment: NF-κB nuclear translocation Western blot in non-TLR-4 expressing HEK293 (negative control cells); format: cell-based; details: HEK293 lacking TLR-4
Description: FIG. 3—LPS peptide mimics lead to NF-κB nuclear translocation. Nuclear translocation studies of NF-κB were performed by Western blot analysis on both RAW264.7 (FIG. 3A), HEK-BLUE™-4 (FIG. 3B), and HEK293 (FIG. 3C) cells. Cells were stimulated with peptide, either RS01 or RS09, at a concentration of 5 μg/ml per 5×10^4 cells at various time points (15, 30, 60, and 120 min) Nuclear protein fractions were assayed for NF-κB while cytoplasmic proteins fractions were assayed for both NF-κB and IκB-α. HDAC was used as a nuclear protein loading control and actin was used as a cytoplasmic protein loading control.
For NF-KB nuclear translocation western blots, cytoplasmic and nuclear protein extracts were prepared from HEK-BLUE™-4, HEK293, and RAW264.7 cells (2×10^6 cells) using NE-PER, nuclear and cytoplasmic extraction reagent kit (PIERCE, Rockford, Ill.). The manufacturer's protocol was followed to separate cytoplasmic and nuclear fractions. Nuclear and cytoplasmic lysates (10 μg protein) were subjected to 12% SDS-PAGE under reducing conditions (presence of β-mercaptoethanol). […] After four washes with TBST and one wash with TBS, membranes were developed by ECL (Pierce) and detected on HyBlot CL™ autoradiography film (Denville Scientific, Inc, Metuchen, N.J.). […]

NF-κB [3] = experiment: Fluorescence microscopy of NF-κB nuclear translocation in RAW264.7; format: cell-based; details: 5 μg/ml, 30 min
Description: FIG. 4—Fluorescence microscopy of NF-κB nuclear translocation. RAW264.7 macrophages were seeded in 8 well chamber slides at a density of 2×10^4 cells per well and stimulated with 5 μg/ml of either RS01 or RS09. After 30 min incubation, cells were fixed (4% para-formaldehyde), permeabilized (0.2% TRITON® X-100), blocked (10% goat serum/1% BSA), and incubated with anti-NF-κB followed by DAPI staining of nuclei. The stained cells were visualized using the Axiovert 200 M microscope with a 40× magnification. NF-KB (green) was more diffusely spread throughout the cytoplasm in control cells but appeared more circular in RS01, RS09, and LPS treated cells.
HEK-BLUE™-4 and RAW264.7 cells were seeded in 8-chamber slides (BD Biosciences, Bedford, Mass.) at a density of 2×10^4 cells per well. Cells were allowed to adhere at 37° C. over night after which the cells were stimulated with LPS peptide mimics at various time points and subsequently processed for immunofluorescence. The cells were fixed with a 4% paraformaldehyde/PBS solution, followed by permeabilization with 0.2% TRITON® X-100, and blocked using a solution of 0.1% TRITON® X-100, 1% BSA, and 10% goat serum. […]

RAW264.7 cells = experiment: Inflammatory cytokine secretion from RAW264.7 macrophages (antibody array); format: cell-based, mouse; details: 24 h
Description: FIG. 5—RAW264.7 secretes inflammatory cytokines in response to RS01 and RS09. RAW264.7 cells were seeded at a density of 1×10^6 cells per well of a six well plate followed by addition of either […] (FIG. 5A) or RS09 (FIG. 5B) and incubated for 24 h after which the culture media was collected. LPS was used as a positive control for both RS01 and RS09. Culture media was then analyzed for specific cytokines using an antibody array kit. […] Each cytokine is represented as an IDV value which was calculated by comparing the density of each spot with respect to the density of the internal positive controls. The antibody array represents a qualitative comparison of each cytokine and is […]. Each experiment was repeated three times with similar results observed. […]
RAW264. […] The blots were then developed using ECL (Pierce) and detected on HyBlot CL™ autoradiography film (Denville Scientific). […]
Although the values obtained for each cytokine are not quantitative but rather qualitative, they do show an increase in release of inflammatory cytokines. These values were calculated and presented as IDV, which is the density of each spot compared to the density of the internal positive controls present on each membrane. Values for the various cytokines and chemokines detected are presented in FIG. 5A for RS01 and FIG. 5B for RS09. […]

TLR-4 = target: T1, TLR-4 (Homo sapiens, UniProt O00206); experiment: NF-κB activation (SEAP reporter) in HEK-BLUE-4 cells; format: cell-based; details: peptide 1, 5 and 10 μg/ml
T1 construct: host or cells: HEK-BLUE-4 (transgenic HEK293)
T1 sequence (O00206 24-839): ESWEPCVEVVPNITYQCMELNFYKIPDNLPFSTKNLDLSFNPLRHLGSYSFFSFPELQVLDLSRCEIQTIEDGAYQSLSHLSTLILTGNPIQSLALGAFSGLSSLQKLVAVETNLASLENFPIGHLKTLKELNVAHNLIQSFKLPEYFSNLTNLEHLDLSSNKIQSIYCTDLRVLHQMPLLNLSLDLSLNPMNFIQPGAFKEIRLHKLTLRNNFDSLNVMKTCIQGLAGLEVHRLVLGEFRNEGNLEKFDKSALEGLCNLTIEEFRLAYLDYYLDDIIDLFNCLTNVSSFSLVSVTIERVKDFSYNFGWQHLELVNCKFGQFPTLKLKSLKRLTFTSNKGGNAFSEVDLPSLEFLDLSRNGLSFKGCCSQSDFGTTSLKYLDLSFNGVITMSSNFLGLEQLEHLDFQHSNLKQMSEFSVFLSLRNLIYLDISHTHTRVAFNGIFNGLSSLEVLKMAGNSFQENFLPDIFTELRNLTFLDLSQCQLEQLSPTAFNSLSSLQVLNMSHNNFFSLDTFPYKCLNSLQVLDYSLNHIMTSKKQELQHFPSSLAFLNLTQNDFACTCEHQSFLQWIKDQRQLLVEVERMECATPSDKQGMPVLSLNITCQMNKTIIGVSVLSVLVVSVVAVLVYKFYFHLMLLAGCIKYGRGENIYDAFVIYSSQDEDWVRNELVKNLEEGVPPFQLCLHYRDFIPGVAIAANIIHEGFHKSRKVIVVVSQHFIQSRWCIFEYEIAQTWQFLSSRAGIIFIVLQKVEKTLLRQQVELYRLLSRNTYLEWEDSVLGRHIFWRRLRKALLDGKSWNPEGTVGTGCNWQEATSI
T1 sequence (Q9Y6Y9 17-160 partner limits assumed): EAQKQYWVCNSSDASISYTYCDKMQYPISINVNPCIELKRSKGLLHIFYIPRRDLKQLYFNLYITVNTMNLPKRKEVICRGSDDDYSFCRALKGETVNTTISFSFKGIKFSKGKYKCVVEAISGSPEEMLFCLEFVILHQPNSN
Description: FIG. 2—LPS peptide mimics activate NF-κB in HEK-BLUE™-4. LPS peptide mimics were dissolved in endotoxin free water and added to 96-well plates at three concentrations; 1 μg/ml (black bar), 5 μg/ml (gray bar), and 10 μg/ml (white bar). HEK-BLUE™4 were then added to each well at a concentration of 5×10^4 cells per well in complete media. The supernatant was then harvested after 24 h and assayed for alkaline phosphatase secretion indicating activation of NF-κB. NF-κB activation is represented in FIG. 2A for peptides RS01-RS07 and in FIG. 2B for peptides RS08-RS12. LPS was used as a positive control in assaying all peptides for NF-κB activation. Absorbance was taken at 630 nm. Each experiment was repeated three times with similar results observed. The standard deviation shown above each sample represents three replicates in one experiment.
The twelve peptides were assayed for their ability to bind to TLR-4 and activate NF-κB using a transgenic HEK293 cell line known as HEK-BLUE™-4. This cell line is stably transfected to only express TLR-4 on its plasma membrane, with no other TLRs present. Detecting activation of NF-κB is made possible by placing secreted alkaline phosphatase (SEAP) under the control of the NF-κB promoter. Therefore, NF-κB activation leads to SEAP secretion, which is detected by an alkaline phosphatase substrate in cell culture media.
The LPS peptide mimics were dissolved in endotoxin free water (HyClone) at a concentration of 1 μg/ml with the exception of peptide 4 which was dissolved in a solution of 1% DMSO made in endotoxin free water at 1 μg/ml concentration. All of the peptide stock solutions and stored at −80° C. Each of the 12 peptides (RS01-RS12) was added to 96-well plates in triplicate in a total volume of 20 μl. The total volume required in each•well was made up with endotoxin free water (HyClone). […] After a noticeable color change, the absorbance was taken at 630 nm using the microplate reader (Bio-Rad). […]

[4] = Immunogenicity of the adjuvant peptide itself in mice; format: in vivo; details: two groups of 3 mice vaccinated with 25 ng of peptide alone; data not shown
Excerpt: This significant increase in X-15 specific antibody concentration with RS09 was observed on day 28 (white bar) post vaccination as shown in FIG. 6. […] Thus, while RS01 and RS09 were not immunogenic at the concentration used, RS09 was capable of enhancing production of X-15 specific antibodies.

prostate tumor = details: in vivo, administered with an adjuvant; cited from earlier work

Substance: GLQQVLL [RS04, Gly Leu Gln Gln Val Leu Leu]
- water solubility [1]: not water soluble

Substance: Lipopolysaccharide [LPS]
- NF-κB nuclear translocation (NF-κB [2]): do not activate the non-TLR-4 expressing HEK293 cells; also recorded: did not result in nuclear translocation
- NF-κB nuclear localization (immunofluorescence, DAPI merge) (NF-κB [3]): nuclear localization of NF-κB was observed
- secretion of inflammatory cytokines and chemokines (IDV, qualitative) (RAW264.7 cells): capable of inducing inflammatory cytokines and chemokines

Substance: SMPNPMV [RS03]
- TLR-4 stimulation and NF-κB activation (alkaline phosphatase secretion, absorbance 630 nm) (TLR-4): considered as TLR-4 stimulating and hence activators of NF-κB

Substance: QEINSSY [RS01, Gln Glu Ile Asn Ser Ser Tyr]
- antibody response to the adjuvant peptide (immunogenicity) [4]: no antibodies were produced

Substance: GQWQSGDRYWMETST (also: KLH conjugate) [Peptide X-15]
- prostate tumor protective properties (prostate tumor): possess prostate tumor protective properties in vivo

Substance: ELAPDSP [RS12]
- TLR-4 stimulation and NF-κB activation (alkaline phosphatase secretion, absorbance 630 nm) (TLR-4): considered as positive for TLR-4 stimulation and NF-κB activation

Substance: VVPTPPY [RS11]
- TLR-4 stimulation and NF-κB activation (alkaline phosphatase secretion, absorbance 630 nm) (TLR-4): considered as positive for TLR-4 stimulation and NF-κB activation

- antibody response to the adjuvant peptide (immunogenicity) [4]: no antibodies were produced
Substance: APPHALS [RS09, Ala Pro Pro His Ala Leu Ser]
